Test results from patent US12440527B2, “Organic sol-gel nano-composition from panax notoginseng, rutin, ginkgo biloba effective in enhancing cerebral and cardiovascular protection and method of producing thereof” (priority 2020, dated 2025).

What was measured:
Assay type in all cases: in vivo
white mice = test: Sedative effect on the advanced plus model (close/open branch)
Procedure: (§1) In the test, the white mice were randomly divided into 4 batches, each batch having 10 animals: Batch 1 (biological control) was subjected to oral administration of 20 mL/kg/day distilled water; batch 2 (positive control) was subjected to oral administration of 2.4 mg/kg/day diazepam; batch 3 was subjected to oral administration of the composition at dose of 0.96 pill/kg/day (equivalent to the clinical dose); batch 4 was subjected to oral administration of the composition at dose of 2.88 pill/kg/day (3 times as much as the clinical dose).

[1] = test system: white mice injected with nikethamide; test: Anticonvulsant effect after nikethamide injection
Procedure: as §1, with “dose). After the mice were injected with nikethamide, the time of convulsion onset and the death time of the mice were taken.” for “dose).”

[2] = test system: white mice injected with nitroglycerin (NTG), chronic migraine model; test: Vasomotor pain relieving effect on chronic migraine model (nitroglycerin injection, dolorimeter); settings: oral 40 mg/kg propranolol, NTG 10 mg/kg
Procedure: In the test, the white mice were randomly divided into 5 batches, each batch having 10 animals: Batch 1 (biological control) was subjected to oral administration of 0.2 ml/10 g water; batch 2 (model) injected 10 mg/kg with nitroglycerin (NTG) was subjected to oral administration of 0.2 mL/10 g water; batch 3 (positive control) injected with 10 mg/kg nitroglycerin was subjected to oral administration of 40 mg/kg propranolol; batch 4 injected with 10 mg/kg nitroglycerin was subjected to oral administration of the composition at dose of 0.96 pill/kg/day (equivalent to the clinical dose); batch 5 injected with 10 mg/kg nitroglycerin was subjected to oral administration of the composition at dose of 2.88 pill/kg/day (3 times as much as the clinical dose).

[3] = After 7 days of oral administration of the drug, Diazepam at 2.4 mg/kg/day
[4] = Before oral administration of the drug, Diazepam at 2.4 mg/kg/day batch

SMILES: CN1C(=O)CN=C(c2ccccc2)c2cc(Cl)ccc21 [Diazepam, diazepam]
- Avoidance rate at the open branch (white mice; [3]): 46.37 ± 9.21
- Number of times of mouse introduction into the close branch (white mice; [3]): 6.40
- Number of times of mouse introduction into the open branch (white mice; [3]): 6.90
- Time of mouse introduction into the close branch (white mice; [3]): 121.20 s
- Time of mouse introduction into the open branch (white mice; [3]): 150.10 s
- Avoidance rate at the open branch (white mice; [4]): 69.21 ± 8.88
- Number of times of mouse introduction into the close branch (white mice; [4]): 11.50
- Number of times of mouse introduction into the open branch (white mice; [4]): 4.30
- Time of mouse introduction into the close branch (white mice; [4]): 173.70 s
- Time of mouse introduction into the open branch (white mice; [4]): 90.40 s
- Effect on time of convulsion onset and death time vs model batch ([1]; 2.4 mg/kg/day diazepam, after nikethamide injection): took effects in prolonging the time of convulsion onset and the death time
- Death time of the mice after nikethamide injection ([1]; Diazepam at 2.4 mg/kg/day oral): 14.91 ± 3.67 min
- Time of convulsion onset ([1]; Diazepam at 2.4 mg/kg/day oral, after nikethamide injection): 2.08 ± 0.55 min

SMILES: CC(C)NCC(O)COc1cccc2ccccc12 (centres unmarked) [Propranolol, propranolol]
- Pain-inducing force in the dolorimeter (baseline pain threshold) ([2]; Day 3): 7.6 ± 1.5 g
- Pain-inducing force on the dolorimeter (pain threshold after treatment) ([2]; Day 3): 6.8 ± 1.2 g
- Pain-inducing force in the dolorimeter (baseline pain threshold) ([2]; Day 5): 6.5 ± 1.1 g
- Pain-inducing force on the dolorimeter (pain threshold after treatment) ([2]; Day 5): 7.0 ± 1.0 g
- Pain-inducing force in the dolorimeter (baseline pain threshold) ([2]; Day 7): 6.4 ± 1.0 g
- Pain-inducing force on the dolorimeter (pain threshold after treatment) ([2]; Day 7): 6.7 ± 0.5 g
- Pain-inducing force in the dolorimeter (baseline pain threshold) ([2]; Day 9): 7.1 ± 0.9 g
- Pain-inducing force on the dolorimeter (pain threshold after treatment) ([2]; Day 9): 6.7 ± 0.5 g
- Pain-inducing force in the dolorimeter (baseline pain threshold) ([2]; Day 11): 7.1 ± 1.0 g
- Pain-inducing force on the dolorimeter (pain threshold after treatment) ([2]; Day 11): 7.8 ± 0.7 g
